Laboratory results as given in PubChem BioAssay (NCI).
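Following 48 hours of exposure in 96-well plates, responses at five concentrations were used to interpolate endpoints linearly. GI50: concentration for 50% inhibition of growth. The concentration for full growth arrest is given as TGI.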

Key:
Assay in all cases: growth of human tumour cells (NCI), 48 h
[1] = tested on: UO-31 renal
[2] = tested on: SK-MEL-28 melanoma
[3] = tested on: HOP-92 NSCLC
[4] = tested on: MOLT-4 leukemia
[5] = tested on: RPMI-8226 leukemia
[6] = tested on: SNB-75 CNS
[7] = tested on: HCC-2998 colon
[8] = tested on: CAKI-1 renal
[9] = tested on: OVCAR-5 ovarian
[10] = tested on: SN12C renal
[11] = tested on: NCI-H226 lung
[12] = tested on: PC-3 prostate
[13] = tested on: HL-60(TB) leukemia
[14] = tested on: SK-MEL-5 melanoma
[15] = tested on: SW-620 colon
[16] = tested on: CCRF-CEM leukemia
[17] = tested on: KM12 colon
[18] = tested on: HS 578T breast
[19] = tested on: M14 melanoma
[20] = tested on: SF-295 CNS
[21] = tested on: MALME-3M melanoma
[22] = tested on: BT-549 breast
[23] = tested on: T-47D breast
[24] = tested on: OVCAR-4 ovarian
[25] = tested on: 786-0 renal
[26] = tested on: MCF7 breast
[27] = tested on: EKVX NSCLC
[28] = tested on: SR leukemia
[29] = tested on: HOP-62 NSCLC
[30] = tested on: DU-145 prostate
[31] = tested on: SK-OV-3 ovarian
[32] = tested on: NCI-H23 lung
[33] = tested on: U251 CNS
[34] = tested on: OVCAR-3 ovarian
[35] = tested on: RXF 393 renal
[36] = tested on: ACHN renal
[37] = tested on: MDA-MB-435
[38] = tested on: OVCAR-8 ovarian
[39] = tested on: HT29 colon
[40] = tested on: HCT-15 colon
[41] = tested on: IGROV1 ovarian
[42] = tested on: K-562 leukemia
[43] = tested on: LOX IMVI melanoma
[44] = tested on: SF-268 CNS
[45] = tested on: A498 renal
[46] = tested on: NCI-H460 lung
[47] = tested on: SF-539 CNS
[48] = tested on: UACC-257 melanoma
[49] = tested on: HCT-116 colon
[50] = tested on: NCI/ADR-RES ovarian
[51] = tested on: UACC-62 melanoma
[52] = tested on: SNB-19 CNS
[53] = tested on: A549 NSCLC
[54] = tested on: MDA-MB-231 breast
[55] = tested on: COLO 205 colon
[56] = tested on: TK-10 renal
[57] = tested on: SK-MEL-2 melanoma
[58] = tested on: NCI-H522 lung

With CC1=C(SCCC(=O)OCC(=O)NCCC[Te]c2ccccc2)C(=O)c2ccccc2C1=O the GI50 [1] was 1740 nM, the TGI [1] was 8.66 µM and the GI50 [2] was 2410 nM. For the same compound, the TGI [2] was 5.78 µM, the GI50 [3] was 1800 nM and the TGI [3] was 5.01 µM. It also gave a GI50 [4] of 3.12 µM, a TGI [4] of 12.2 µM and a GI50 [5] of 2640 nM. The TGI [5] was 9.84 µM, the GI50 [6] was 1370 nM and the TGI [6] was 5.42 µM. It also gave a GI50 [7] of 1780 nM, a TGI [7] of 4.58 µM and a GI50 [8] of 1860 nM. For the same compound, the TGI [8] was 6.87 µM, the GI50 [9] was 2860 nM and the TGI [9] was 7.68 µM. It also gave a GI50 [10] of 2210 nM, a TGI [10] of 7.99 µM and a GI50 [11] of 1640 nM. It also gave a TGI [11] of 3.64 µM, a GI50 [12] of 1960 nM and a TGI [12] of 9.76 µM. It also gave a GI50 [13] of 2580 nM, a TGI [13] of 7.07 µM and a GI50 [14] of 1520 nM. It also gave a TGI [14] of 2880 nM, a GI50 [15] of 3.79 µM and a TGI [15] of 15.6 µM. It also gave a GI50 [16] of 2100 nM, a TGI [16] of 19.6 µM and a GI50 [17] of 2960 nM. The TGI [17] was 10.1 µM, the GI50 [18] was 2970 nM and the TGI [18] was over 33.7 µM. For the same compound, the GI50 [19] was 2110 nM, the TGI [19] was 5.27 µM and the GI50 [20] was 1110 nM. It also gave a TGI [20] of 4.24 µM, a GI50 [21] of 2220 nM and a TGI [21] of 5.56 µM. It also gave a GI50 [22] of 1700 nM, a TGI [22] of 3.95 µM and a GI50 [23] of 2200 nM. For the same compound, the TGI [23] was 6.21 µM, the GI50 [24] was 2210 nM and the TGI [24] was 7.34 µM. It also gave a GI50 [25] of 2640 nM, a TGI [25] of 7.33 µM and a GI50 [26] of 2500 nM. The TGI [26] was 10.7 µM, the GI50 [27] was 443 nM and the TGI [27] was 5.11 µM. For the same compound, the GI50 [28] was 1970 nM, the TGI [28] was 17.4 µM and the GI50 [29] was 2040 nM. The TGI [29] was 5.19 µM, the GI50 [30] was 2950 nM and the TGI [30] was 8.05 µM. The GI50 [31] was 1900 nM, the TGI [31] was 4.62 µM and the GI50 [32] was 1840 nM. The TGI [32] was 5.25 µM, the GI50 [33] was 2390 nM and the TGI [33] was 8.06 µM. For the same compound, the GI50 [34] was 2230 nM, the TGI [34] was 4.81 µM and the GI50 [35] was 1780 nM. For the same compound, the TGI [35] was 5.16 µM, the GI50 [36] was 2760 nM and the TGI [36] was 10.2 µM. The GI50 [37] was 3.07 µM, the TGI [37] was 10.4 µM and the GI50 [38] was 2740 nM. It also gave a TGI [38] of 11 µM, a GI50 [39] of 3.29 µM and a TGI [39] of 11.1 µM. For the same compound, the GI50 [40] was 2730 nM, the TGI [40] was 11.4 µM and the GI50 [41] was 1920 nM. For the same compound, the TGI [41] was 5.58 µM, the GI50 [42] was 3.3 µM and the TGI [42] was 19.4 µM. It also gave a GI50 [43] of 1720 nM, a TGI [43] of 4.07 µM and a GI50 [44] of 2610 nM. It also gave a TGI [44] of 9.42 µM, a GI50 [45] of 1900 nM and a TGI [45] of 6.16 µM. For the same compound, the GI50 [46] was 790 nM, the TGI [46] was 3000 nM and the GI50 [47] was 2290 nM. The TGI [47] was 6.71 µM, the GI50 [48] was 2880 nM and the TGI [48] was 8.23 µM. For the same compound, the GI50 [49] was 1630 nM, the TGI [49] was 4.12 µM and the GI50 [50] was 2220 nM. It also gave a TGI [50] of 7.32 µM, a GI50 [51] of 1940 nM and a TGI [51] of 4.83 µM. It also gave a GI50 [52] of 2780 nM, a TGI [52] of 10.4 µM and a GI50 [53] of 793 nM. For the same compound, the TGI [53] was 2950 nM, the GI50 [54] was 1800 nM and the TGI [54] was 4.34 µM. The GI50 [55] was 1970 nM, the TGI [55] was 3.88 µM and the GI50 [56] was 3.87 µM. The TGI [56] was 12.4 µM, the GI50 [57] was 2750 nM and the TGI [57] was 7.24 µM. For the same compound, the GI50 [58] was 2710 nM and the TGI [58] was 10.8 µM.
